Measurements published in PMC11726021 (Cancer Discovery, 2024).

System: CTG-2543 PDX (HER2^YVMA)
Experiment: NSCLC PDX model CTG-2543
Assay type: in vivo, mouse

SMILES	tumor growth (erlotinib 75 mg/kg)	tumor growth (poziotinib at the maximum tolerated dose (MTD) of 1 mg/kg every day)
C#Cc1cccc(Nc2ncnc3cc(OCCOC)c(OCCOC)cc23)c1 [erlotinib, reference compound]	modest TGI but no regressions	–
C=CC(=O)N1CCC(Oc2cc3c(Nc4ccc(Cl)c(Cl)c4F)ncnc3cc2OC)CC1 [poziotinib, reference compound]	–	effectively shrank tumors
